Source: ChEMBL document CHEMBL1144481, “Cholinesterase inhibitors: SAR and enzyme inhibitory activity of 3-[omega-(benzylmethylamino)alkoxy]xanthen-9-ones” (Bioorg Med Chem, 2007)

How the values were obtained:
[1] = organism: Homo sapiens; assay: Ratio of IC50 for AchE to IC50 for BuChE
[2] = target: Acetylcholinesterase (Homo sapiens, UniProt P22303); assay: Inhibition of human erythrocyte AchE
[3] = target: Cholinesterase (Homo sapiens, UniProt P06276); assay: Inhibition of human serum BuChE
[4] = organism: Homo sapiens; assay: Ratio of IC50 for BuChE to IC50 for AchE

Chain of Cholinesterase (P06276 whole entry): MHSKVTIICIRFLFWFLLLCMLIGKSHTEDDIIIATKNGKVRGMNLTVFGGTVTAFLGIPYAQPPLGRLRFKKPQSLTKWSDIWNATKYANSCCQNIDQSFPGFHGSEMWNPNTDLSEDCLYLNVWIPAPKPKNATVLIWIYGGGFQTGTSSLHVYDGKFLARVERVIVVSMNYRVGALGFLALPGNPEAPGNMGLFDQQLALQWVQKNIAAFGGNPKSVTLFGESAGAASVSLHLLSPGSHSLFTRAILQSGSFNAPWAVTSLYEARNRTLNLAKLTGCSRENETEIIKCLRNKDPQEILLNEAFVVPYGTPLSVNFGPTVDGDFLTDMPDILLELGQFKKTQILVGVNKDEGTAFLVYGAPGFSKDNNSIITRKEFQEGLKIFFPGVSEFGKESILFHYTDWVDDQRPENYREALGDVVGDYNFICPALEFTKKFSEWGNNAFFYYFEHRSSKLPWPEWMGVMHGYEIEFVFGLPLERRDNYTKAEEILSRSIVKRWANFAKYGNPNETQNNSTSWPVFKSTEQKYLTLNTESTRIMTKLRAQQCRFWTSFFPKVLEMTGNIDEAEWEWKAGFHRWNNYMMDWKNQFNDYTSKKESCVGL
Chain of Acetylcholinesterase (P22303 whole entry): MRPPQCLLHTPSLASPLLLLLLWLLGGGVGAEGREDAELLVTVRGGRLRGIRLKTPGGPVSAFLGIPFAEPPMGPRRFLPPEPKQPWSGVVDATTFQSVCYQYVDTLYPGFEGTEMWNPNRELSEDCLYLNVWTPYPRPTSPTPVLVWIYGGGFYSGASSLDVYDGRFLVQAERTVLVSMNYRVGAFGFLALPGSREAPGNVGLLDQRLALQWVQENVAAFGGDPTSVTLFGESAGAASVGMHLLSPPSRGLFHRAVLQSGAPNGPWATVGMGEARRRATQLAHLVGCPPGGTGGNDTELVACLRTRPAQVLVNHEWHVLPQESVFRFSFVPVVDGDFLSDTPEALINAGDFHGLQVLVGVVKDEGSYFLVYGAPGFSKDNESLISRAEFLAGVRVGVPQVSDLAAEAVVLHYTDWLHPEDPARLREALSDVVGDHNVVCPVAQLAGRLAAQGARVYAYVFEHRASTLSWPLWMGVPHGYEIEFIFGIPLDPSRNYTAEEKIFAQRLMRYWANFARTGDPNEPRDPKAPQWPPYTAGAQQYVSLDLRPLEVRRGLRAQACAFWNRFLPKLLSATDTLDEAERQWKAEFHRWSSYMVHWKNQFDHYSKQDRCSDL

SMILES	Ratio IC50 [1]	IC50 [2]	IC50 [3]	Ratio IC50 [4]
COc1cc2oc3cc(OCCCCCCCN(C)Cc4ccccc4)ccc3c(=O)c2cc1OC	0.75	2.32 µM	3.08 µM	1.33
COc1ccc2c(=O)c3ccc(OCCCCCCCN(C)Cc4ccccc4)cc3oc2c1	0.17	7.84 µM	46.1 µM	5.9
CN(CCCCCCCOc1ccc2c(=O)c3ccccc3oc2c1)Cc1ccccc1Cl	1.6	433 µM	269 µM	0.62
CN(CCCCCCCOc1ccc2c(=O)c3ccccc3oc2c1)Cc1cccc(Cl)c1	9.3	594 µM	63.8 µM	0.1
COc1ccccc1CN(C)CCCCCCCOc1ccc2c(=O)c3ccccc3oc2c1	2.34	2.18 µM	0.93 µM	0.43
CCN(CCCCCCCOc1ccc2c(=O)c3ccccc3oc2c1)Cc1ccccc1OC	9.8	3.15 µM	0.32 µM	0.1
Cc1ccccc1CN(C)CCCCCCCOc1ccc2c(=O)c3ccccc3oc2c1	19.1	565 µM	29.5 µM	0.05
CN(CCCOc1ccc2c(=O)c3ccccc3oc2c1)Cc1ccccc1	0.32	2.68 µM	8.33 µM	3.11
CN(CCCCCCCCOc1ccc2c(=O)c3ccccc3oc2c1)Cc1ccccc1	129	10.3 µM	0.08 µM	0.008
COc1cccc(CN(C)CCCCCCCOc2ccc3c(=O)c4ccccc4oc3c2)c1OC	68.7	138 µM	2.01 µM	0.014
CN(CCCCCCOc1ccc2c(=O)c3ccccc3oc2c1)Cc1ccccc1	2.02	2.89 µM	1.43 µM	0.49
CN(CCCCCOc1ccc2c(=O)c3ccccc3oc2c1)Cc1ccccc1	3.12	7.78 µM	2.49 µM	0.32
COc1cccc(CN(C)CCCCCCCOc2ccc3c(=O)c4ccccc4oc3c2)c1	21.6	40 µM	1.85 µM	0.05
CN(CCCCOc1ccc2c(=O)c3ccccc3oc2c1)Cc1ccccc1	2.36	6.25 µM	2.65 µM	0.42
CN(CCCCCCCCCCCCOc1ccc2c(=O)c3ccccc3oc2c1)Cc1ccccc1	6050			
COc1ccccc1CN(C)CCCOc1ccc2c(=O)c3ccccc3oc2c1	1.78	3.4 µM	1.91 µM	0.56
COc1ccc(CN(C)CCCCCCCOc2ccc3c(=O)c4ccccc4oc3c2)c(OC)c1OC	155	155 µM	1 µM	0.006
COc1ccc(OC)c(CN(C)CCCCCCCOc2ccc3c(=O)c4ccccc4oc3c2)c1	100	127 µM	1.27 µM	0.01
CN(CCCCCCCOc1ccc2c(=O)c3ccccc3oc2c1)Cc1ccc(Cl)cc1	8.26	1050 µM	127 µM	0.12
CN(CCCCCCCCCCCOc1ccc2c(=O)c3ccccc3oc2c1)Cc1ccccc1	5220			
CN(CCCCCCCOc1ccc2c(=O)c3ccccc3oc2c1)Cc1ccccc1	3.52	2.82 µM	0.8 µM	0.28
CN(CCCCCCCCCCOc1ccc2c(=O)c3ccccc3oc2c1)Cc1ccccc1	3880			
CN(CCCCCCCOc1ccc2c(=O)c3ccccc3oc2c1)Cc1ccccc1[N+](=O)[O-]	29.5	413 µM	14 µM	0.03
COc1ccc(CN(C)CCCCCCCOc2ccc3c(=O)c4ccccc4oc3c2)cc1	171	360 µM	2.11 µM	0.006
CN(CCCCCCCCCOc1ccc2c(=O)c3ccccc3oc2c1)Cc1ccccc1	1520			
CNC(=O)Oc1cccc(CN(C)CCCCCCCOc2ccc3c(=O)c4ccccc4oc3c2)c1	0.019			51.6
